Patent publication US6054435A, “6-O-substituted macrolides having antibacterial activity” (priority 1999, dated 2000)
≈ marks a conversion by molar mass, not a printed value.

Key:
Assay in all cases: in vitro antibacterial activity (MIC), agar dilution
Type in all cases: cell-based
[1] = system: Nocardia Asteroides ATCC9970; settings: organism code VV; BHI agar, 35-37° C., 20 to 24 hours; unit assumed
In short: (§1)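 Agar dilution in BHI agar, twelve successive compound dilutions. Inoculum 1:100, or 1:10 for slow-growing strains (e.g. Streptococcus), replicator-spotted. Read by eye; MIC = lowest concentration with no growth, slight haze or sparsely isolated colonies relative to growth control.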

[2] = system: Streptococcus Pneumonia GYR 1171; settings: organism code YY; BHI agar, 35-37° C., 20 to 24 hours; unit assumed
In short: as §1

[3] = system: Streptococcus pyogenes PIU 2548; settings: organism code NN; BHI agar, 35-37° C., 20 to 24 hours; unit assumed
In short: as §1

[4] = system: Micrococcus luteus ATCC 4698; settings: organism code PP; BHI agar, 35-37° C., 20 to 24 hours; unit assumed
In short: (§2)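 Agar dilution on BHI agar with twelve successive compound dilutions; plates inoculated by Steers replicator with 1:100 culture dilutions (1:10 for slow growers such as Streptococcus). MIC is the lowest concentration giving no growth, slight haze or sparse colonies versus a drug-free control.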

[5] = system: Micrococcus luteus ATCC 9341; settings: organism code OO; BHI agar, 35-37° C., 20 to 24 hours; unit assumed
In short: as §2

[6] = system: Mycobacterium smegmatis ATCC 114; settings: organism code UU; BHI agar, 35-37° C., 20 to 24 hours; unit assumed
In short: as §1

[7] = system: Streptococcus Pneumonia 5649; settings: organism code ZZA; BHI agar, 35-37° C., 20 to 24 hours; unit assumed
In short: as §1

[8] = system: Staphylococcus aureus CMX 553; settings: organism code FF; BHI agar, 35-37° C., 20 to 24 hours; unit assumed
In short: as §1

[9] = system: Streptococcus Pneumonia 5979; settings: organism code ZZ; BHI agar, 35-37° C., 20 to 24 hours; unit assumed
In short: as §1

[10] = system: Streptococcus agalactiae CMX 508; settings: organism code KK; BHI agar, 35-37° C., 20 to 24 hours; unit assumed
In short: as §1

[11] = system: Staphylococcus aureus CMX 642A; settings: organism code DD; BHI agar, 35-37° C., 20 to 24 hours; unit assumed
In short: as §1

[12] = system: Streptococcus pyogenes 930; settings: organism code MM; BHI agar, 35-37° C., 20 to 24 hours; unit assumed
In short: as §1

[13] = system: Staphylococcus aureus A5177; settings: organism code BB; BHI agar, 35-37° C., 20 to 24 hours; unit assumed
In short: as §1

[14] = system: Enterococcus faecium ATCC 8043; settings: organism code II; BHI agar, 35-37° C., 20 to 24 hours; unit assumed
In short: as §1

[15] = system: Streptococcus Pneumonia ATCC6303; settings: organism code XX; BHI agar, 35-37° C., 20 to 24 hours; unit assumed
In short: as §1

[16] = system: Staphylococcus aureus 1775; settings: organism code GG; BHI agar, 35-37° C., 20 to 24 hours; unit assumed
In short: as §1

[17] = system: Staphylococcus aureus NCTC10649M; settings: organism code EE; BHI agar, 35-37° C., 20 to 24 hours; unit assumed
In short: as §1

[18] = system: Staphylococcus aureus ATCC 6538P; settings: organism code AA; BHI agar, 35-37° C., 20 to 24 hours; unit assumed
In short: as §1

[19] = system: Streptococcus pyogenes EES61; settings: organism code LL; BHI agar, 35-37° C., 20 to 24 hours; unit assumed
In short: as §1

[20] = system: Streptococcus bovis A-5169; settings: organism code JJ; BHI agar, 35-37° C., 20 to 24 hours; unit assumed
In short: as §1

Candida albicans CCH 442 = settings: organism code TT; BHI agar, 35-37° C., 20 to 24 hours; unit assumed
In short: as §1

[21] = system: Haemophilis Influenzae DILL AMP R; settings: organism code WW; BHI agar, 35-37° C., 20 to 24 hours; unit assumed
In short: as §1

[22] = system: Staphylococcus epidermidis 3519; settings: organism code HH; BHI agar, 35-37° C., 20 to 24 hours; unit assumed
In short: as §1

Escherichia coli JUHL = settings: organism code QQ; BHI agar, 35-37° C., 20 to 24 hours; unit assumed
In short: as §1

Escherichia coli SS = settings: organism code RR; BHI agar, 35-37° C., 20 to 24 hours; unit assumed
In short: as §1

[23] = system: Staphylococcus aureus A-5278; settings: organism code CC; BHI agar, 35-37° C., 20 to 24 hours; unit assumed
In short: as §1

Escherichia coli DC-2 = settings: organism code SS; BHI agar, 35-37° C., 20 to 24 hours; unit assumed
In short: as §1

| Structure (SMILES) | MIC [1] [µg/mL] | MIC [2] [µg/mL] | MIC [3] [µg/mL] | MIC [4] [µg/mL] | MIC [5] [µg/mL] | MIC [6] [µg/mL] | MIC [7] [µg/mL] | MIC [8] [µg/mL] | MIC [9] [µg/mL] | MIC [10] [µg/mL] | MIC [11] [µg/mL] | MIC [12] [µg/mL] | MIC [13] [µg/mL] | MIC [14] [µg/mL] | MIC [15] [µg/mL] | MIC [16] [µg/mL] | MIC [17] [µg/mL] | MIC [18] [µg/mL] | MIC [19] [µg/mL] | MIC [20] [µg/mL] | other results |
| --- | --- | --- | --- | --- | --- | --- | --- | --- | --- | --- | --- | --- | --- | --- | --- | --- | --- | --- | --- | --- | --- |
| CC[C@H]1OC(=O)[C@H](C)C(=O)[C@H](C)[C@@H](O[C@@H]2O[C@H](C)C[C@H](N(C)C)[C@H]2O)[C@](C)(OC/C=C/c2ncc(-c3cccnc3)s2)C[C@@H](C)C(=O)[C@H](C)[C@H]2NC(=O)O[C@@]21C [Example 54] | 0.01 (≈ 0.0125 µM) | 0.03 (≈ 0.0375 µM) | 0.1 (≈ 0.125 µM) | 0.05 (≈ 0.0626 µM) | 0.01 (≈ 0.0125 µM) | 3.1 (≈ 3.88 µM) | 0.25 (≈ 0.313 µM) | 0.05 (≈ 0.0626 µM) | 4 (≈ 5.01 µM) | ≤ 0.005 | 0.05 (≈ 0.0626 µM) | 100 (≈ 125 µM) | 0.05 (≈ 0.0626 µM) | 0.02 (≈ 0.025 µM) | 0.03 (≈ 0.0375 µM) | > 100 | 0.1 (≈ 0.125 µM) | 0.05 (≈ 0.0626 µM) | ≤ 0.005 | ≤ 0.005 | MIC (Candida albicans CCH 442): > 100 µg/mL; MIC [21]: 2 µg/mL (≈ 2.5 µM); MIC [22]: 0.05 µg/mL (≈ 0.0626 µM); MIC (Escherichia coli JUHL): 1.56 µg/mL (≈ 1.95 µM); MIC (Escherichia coli SS): 0.2 µg/mL (≈ 0.25 µM); MIC [23]: > 100 µg/mL; MIC (Escherichia coli DC-2): 25 µg/mL (≈ 31.3 µM) |
| CC[C@H]1OC(=O)[C@H](C)C(=O)[C@H](C)[C@@H](O[C@@H]2O[C@H](C)C[C@H](N(C)C)[C@H]2O)[C@](C)(OCC#Cc2ccc(-c3cccc(C)c3)s2)C[C@@H](C)C(=O)[C@H](C)[C@H]2NC(=O)O[C@@]21C [Example 18] | 0.1 (≈ 0.124 µM) | 0.03 (≈ 0.0371 µM) | 0.2 (≈ 0.247 µM) | 0.2 (≈ 0.247 µM) | 0.02 (≈ 0.0247 µM) | 0.1 (≈ 0.124 µM) | 0.5 (≈ 0.618 µM) | 0.1 (≈ 0.124 µM) | 2 (≈ 2.47 µM) | 0.02 (≈ 0.0247 µM) | 0.1 (≈ 0.124 µM) | 1.56 (≈ 1.93 µM) | 0.1 (≈ 0.124 µM) | 0.1 (≈ 0.124 µM) | 0.06 (≈ 0.0742 µM) | 12.5 (≈ 15.5 µM) | 0.2 (≈ 0.247 µM) | 0.1 (≈ 0.124 µM) | 0.02 (≈ 0.0247 µM) | 0.01 (≈ 0.0124 µM) | MIC (Candida albicans CCH 442): > 100 µg/mL; MIC [21]: 2 µg/mL (≈ 2.47 µM); MIC [22]: 0.2 µg/mL (≈ 0.247 µM); MIC (Escherichia coli JUHL): > 100 µg/mL; MIC (Escherichia coli SS): 0.78 µg/mL (≈ 0.964 µM); MIC [23]: 25 µg/mL (≈ 30.9 µM); MIC (Escherichia coli DC-2): > 100 µg/mL |
| CC[C@H]1OC(=O)[C@H](C)C(=O)[C@H](C)[C@@H](O[C@@H]2O[C@H](C)C[C@H](N(C)C)[C@H]2O)[C@](C)(OCC#Cc2ccc(-c3cccc(C(F)(F)F)c3)s2)C[C@@H](C)C(=O)[C@H](C)[C@H]2NC(=O)O[C@@]21C [Example 19] | 0.39 (≈ 0.452 µM) | 0.125 (≈ 0.145 µM) | 0.39 (≈ 0.452 µM) | 0.39 (≈ 0.452 µM) | 0.2 (≈ 0.232 µM) | 0.39 (≈ 0.452 µM) | 1 (≈ 1.16 µM) | 0.39 (≈ 0.452 µM) | 4 (≈ 4.63 µM) | 0.05 (≈ 0.0579 µM) | 0.39 (≈ 0.452 µM) | 3.1 (≈ 3.59 µM) | 0.39 (≈ 0.452 µM) | 0.39 (≈ 0.452 µM) | 0.125 (≈ 0.145 µM) | 12.5 (≈ 14.5 µM) | 0.39 (≈ 0.452 µM) | 0.39 (≈ 0.452 µM) | 0.1 (≈ 0.116 µM) | 0.05 (≈ 0.0579 µM) | MIC (Candida albicans CCH 442): > 100 µg/mL; MIC [21]: 4 µg/mL (≈ 4.63 µM); MIC [22]: 0.39 µg/mL (≈ 0.452 µM); MIC (Escherichia coli JUHL): > 100 µg/mL; MIC (Escherichia coli SS): 3.1 µg/mL (≈ 3.59 µM); MIC [23]: 25 µg/mL (≈ 29 µM); MIC (Escherichia coli DC-2): > 100 µg/mL |
| CC[C@H]1OC(=O)[C@H](C)C(=O)[C@H](C)[C@@H](O[C@@H]2O[C@H](C)C[C@H](N(C)C)[C@H]2O)[C@](C)(OCC#Cc2ccc(-c3ncccn3)s2)C[C@@H](C)C(=O)[C@H](C)[C@H]2NC(=O)O[C@@]21C [Example 5] | 0.01 (≈ 0.0125 µM) | 0.03 (≈ 0.0376 µM) | 0.1 (≈ 0.125 µM) | 0.1 (≈ 0.125 µM) | 0.01 (≈ 0.0125 µM) | 0.78 (≈ 0.979 µM) | 0.25 (≈ 0.314 µM) | 0.02 (≈ 0.0251 µM) | 0.5 (≈ 0.627 µM) | 0.01 (≈ 0.0125 µM) | 0.05 (≈ 0.0627 µM) | 25 (≈ 31.4 µM) | 0.05 (≈ 0.0627 µM) | 0.02 (≈ 0.0251 µM) | 0.03 (≈ 0.0376 µM) | > 100 | 0.05 (≈ 0.0627 µM) | 0.02 (≈ 0.0251 µM) | ≤ 0.005 | ≤ 0.005 | MIC (Candida albicans CCH 442): > 100 µg/mL; MIC [21]: 2 µg/mL (≈ 2.51 µM); MIC [22]: 0.05 µg/mL (≈ 0.0627 µM); MIC (Escherichia coli JUHL): 25 µg/mL (≈ 31.4 µM); MIC (Escherichia coli SS): 0.1 µg/mL (≈ 0.125 µM); MIC [23]: > 100 µg/mL; MIC (Escherichia coli DC-2): 25 µg/mL (≈ 31.4 µM) |
| CC[C@H]1OC(=O)[C@H](C)C(=O)[C@H](C)[C@@H](O[C@@H]2O[C@H](C)C[C@H](N(C)C)[C@H]2O)[C@](C)(OCC#Cc2ccc(-c3cnc4ccccc4n3)s2)C[C@@H](C)C(=O)[C@H](C)[C@H]2NC(=O)O[C@@]21C [Example 33] | 0.1 (≈ 0.118 µM) | 0.03 (≈ 0.0354 µM) | 0.2 (≈ 0.236 µM) | 0.05 (≈ 0.059 µM) | 0.05 (≈ 0.059 µM) | 0.2 (≈ 0.236 µM) | 0.25 (≈ 0.295 µM) | 0.2 (≈ 0.236 µM) | 0.25 (≈ 0.295 µM) | 0.01 (≈ 0.0118 µM) | 0.2 (≈ 0.236 µM) | 0.39 (≈ 0.46 µM) | 0.2 (≈ 0.236 µM) | 0.05 (≈ 0.059 µM) | 0.03 (≈ 0.0354 µM) | 50 (≈ 59 µM) | 0.39 (≈ 0.46 µM) | 0.2 (≈ 0.236 µM) | 0.02 (≈ 0.0236 µM) | 0.01 (≈ 0.0118 µM) | MIC (Candida albicans CCH 442): > 100 µg/mL; MIC [21]: 4 µg/mL (≈ 4.72 µM); MIC [22]: 0.2 µg/mL (≈ 0.236 µM); MIC (Escherichia coli JUHL): > 100 µg/mL; MIC (Escherichia coli SS): 0.78 µg/mL (≈ 0.921 µM); MIC [23]: 25 µg/mL (≈ 29.5 µM); MIC (Escherichia coli DC-2): > 100 µg/mL |
